Row | SMILES | melting point
1 | Nc1cccc(-c2ccc(OCC3CCN3)c3ccccc23)n1 (centres undefined) | 135 to 150 °C
2 | COC(=O)c1ccc(-c2nnc(-c3cccc(NS(=O)(=O)c4ccc(C)cc4)c3)o2)cc1 | 227 to 228 °C
3 | CCC[C@H]1C(=O)N[C@H]2CCN[C@@H]21 (relative stereo) | 97 to 100 °C
4 | CC(C)c1ccc(N2Cc3ccc(Cl)cc3C2=O)cc1 | 206 to 209 °C
5 | COc1ccc2c(c1CC1CCCC1)CC[N+]([O-])=C2Cc1c(Cl)cncc1Cl | 176 to 178 °C
6 | O=C(O)C1Oc2ccccc2Cc2ccccc2O1 | 153 to 157 °C
7 | FC(F)(F)c1ccccc1NC(=S)N1CCc2c(sc3c2C(c2ccccc2Cl)=NCc2nnc(Cc4ccccc4)n2-3)C1 | 239 to 240 °C
8 | CN1Cc2c(Cl)cc(F)c(-n3c(=O)cc(C(F)(F)F)n(C)c3=O)c2O1 | 218 to 219 °C
9 | COc1cc(Nc2c(C#N)cnc3cc(-c4csc(C5OCCO5)c4)sc23)c(Cl)cc1Cl | 219 to 221 °C
10 | CCCN(C(=O)Cl)C(=O)CCl | 40 to 44 °C
11 | CN(C)Cc1c(-c2ccccc2)nc2c(C(=O)NC(C#N)c3cccc(F)c3)cccn12 (centres undefined) | 123 to 124 °C
12 | Cc1nccn1CC1CCc2c(c3ccccc3n2C)/C1=N/OC(=O)c1cccc(C#N)c1 (centres undefined) | 160 to 166 °C
13 | CN(C)C=Nc1sc([N+](=O)[O-])cc1C#N | 230 °C
14 | CC1(C)OC(=O)C(=CSCc2cccs2)C(=O)O1 | 109 to 111 °C
15 | O=c1[nH]c(-c2ccccn2)nnc1-c1ccc(Cl)cc1 | 216 to 217 °C
16 | O=C1CCN(Cc2ccccc2OC(F)F)CC1C(c1ccc(F)cc1)c1ccc(F)cc1 (centres undefined) | 83 to 84 °C
17 | O=[N+]([O-])c1cnc2cc(Cl)ccc2c1Cl | 165 to 167 °C
18 | OC[C@@H](COc1ccccc1)OC1CCCCO1 (some centres undefined) | 39 to 41 °C
19 | C[C@H]1CCCC(C)(C)[C@@H]1[C@H](O)c1cccc(C#N)c1 | 105 to 107 °C

Row | SMILES | melting point
20 | Cc1cc2c(s1)Nc1ccccc1N=C2N1CCN(C)[C@@H](COCc2ccccc2)C1 | 55 to 65 °C
21 | Cn1c(C(F)(F)F)cc(=O)n(-c2c(F)cc(Cl)c3oc(CO)cc23)c1=O | 139 to 141 °C
22 | NCc1ccccc1C1CCN(c2cc3c(cc2F)c(=O)c(C(=O)O)cn3C2CC2)C1 (centres undefined) | 245 to 247 °C
23 | Fc1ccccc1-c1nc(Cl)nc2ccc(Cl)cc12 | 208 to 210 °C
24 | CCCCCCCCCCCCCCCCOc1cccc(O)c1 | 58 to 59 °C
25 | N#Cc1nc(-c2ccccc2)c[nH]1 | 151 to 153 °C
26 | COc1ccc2[nH]c3c(c2c1)CCN1CN(C)CCC31 (centres undefined) | 199 to 200 °C
27 | CCCCCCCCCCCCCCCCCCNC(=O)OCC(CO)NC(=O)OC(C)(C)C (centres undefined) | 73 to 75 °C
28 | O=Cc1c(-c2cccc(C(F)(F)F)c2)sc2ccccc12 | 103 to 104 °C
29 | CN(C)c1ccc(C(=O)NC(=O)Nc2ccc3c(c2)NC(=O)/C3=C\c2ccc[nH]2)cc1 | 285 to 290 °C
30 | C[C@]12CCC(=O)N[C@@H]1CCc1cc(Sc3ccccc3F)ccc12 | 196 to 198 °C
31 | O=Cc1ccc(OC2CCCC2)c(O)c1Br | 107 to 109 °C
32 | O=Cc1cc2c(ccc3ccoc32)c2ccccc12 | 164 to 166 °C
33 | Fc1ccc(-c2ncn(C3CCNCC3)c2-c2ccnc(Oc3cccc(F)c3)n2)cc1 | 155 to 156 °C
34 | COc1ccc([N+](=O)[O-])cc1C(C#N)O[Si](C)(C)C (centres undefined) | 108 to 111 °C
35 | CN(Cc1coc(C=Cc2ccc(C(F)(F)F)cc2)n1)c1ccc(CCCCn2ccnn2)cc1 | 112 to 114 °C
36 | CC(C)(O)C(=O)c1ccc(C(O)c2ccc(C(=O)C(C)(C)O)cc2)cc1 | 130 °C
37 | Cc1cc(Oc2cccc(C(F)(F)F)c2)c(C)cc1N=CNC#N | 138 to 140 °C
38 | Nc1ccc(SC(F)(F)F)cc1[N+](=O)[O-] | 86 °C

Row | SMILES | melting point
39 | O=P(c1ccccc1)(c1ccccc1)c1cc(O)ccc1O | 216 to 218 °C
40 | CC1(C)C(N)CN1c1c(F)cc2c(=O)c(C(=O)O)cn(C3CC3)c2c1F (centres undefined) | 214 to 216 °C
41 | COc1ccccc1N1CCN(CCc2ccc(OC(=O)C(C)(C)C)c3ncccc23)CC1 | 115 °C
42 | N=C(Nc1ccc(CCNCc2ccccc2Cl)cc1)c1cccs1 | 81 to 82 °C
43 | COc1ccc(C2=NN(c3ccc(O)cc3)C(=O)[C@@H]3CC=CC[C@H]23)cc1OC | 111 to 112 °C
44 | O=C(c1cccs1)c1cnn2c(-c3cccc(NC(=O)C4CC4)c3)ccnc12 | 191 to 192 °C
45 | N#CC(C(N)=O)c1ccccc1[N+](=O)[O-] (centres undefined) | 172 to 174 °C
46 | CN(CCOc1ccc(NS(C)(=O)=O)cc1)CCc1ccc(NS(C)(=O)=O)cc1 | 150 to 152 °C
47 | Cc1cccc(SCc2c(CCN(C)C)[nH]c3ccccc23)c1 | 75 to 78 °C
48 | COc1ccc(-c2ccc(-c3ccc(F)cc3)nc2-c2ccc(O)cc2)cc1 | 143 to 145 °C
49 | CN(C)C=C(C#N)C=NN(C)C | 130 to 134 °C
50 | CC(=O)SC1(C(=O)O)CCCC1 | 120 to 122 °C
51 | O=Cc1ccc(-c2cc3c4c(c2)cc(F)n4C(=O)CNC3)cc1 | 212 to 214 °C
52 | Oc1ccc(Sc2cnnc3ccccc23)cc1 | 238 °C
53 | COc1ccc(-c2nc(N)ncc2-c2ccc(=O)[nH]n2)cc1F | 250 °C
54 | CCCC12C3=CCC4CC(OC(C)=O)CCC4(C)C3CCC1(C)C(C(C)CCCC(C)C)CC2O (centres undefined) | 104 °C
55 | CN(C)[C@H]1C[C@@H]2CN(C(=O)c3ccc(NC(=O)c4ccccc4-c4ccccc4)cc3)c3ccccc3N2C1 | 195 to 197 °C
56 | O=C(O)C1(c2ccccc2)CC2CC2C1 (centres undefined) | 78 to 125 °C
57 | COc1cc([N+](=O)[O-])c2nccc(C)c2c1OCCCCc1ccccc1 | 88 to 89 °C

Continued, values first:

Row | melting point | SMILES
58 | 155 to 157 °C | O=C(Nc1ccccc1)c1ccc(F)c([N+](=O)[O-])c1
59 | 166 to 168 °C | CCOC(=O)c1cnc2ccc(I)cn2c1=O
60 | 221 to 223 °C | COC(=O)c1csc2nc(N)sc12
61 | 78 to 81 °C | Cc1cc(/C=C/CC(C)N(C)C(=O)OC(C)(C)C)cnc1N (centres undefined)
62 | 59 °C | CCOc1ccc(CC(=O)OCc2ccc(C#N)cc2)cc1
63 | 208 to 209 °C | CC(=O)OCC1CC(n2c(=S)[nH]c3cc(Cl)c(Cl)cc32)C(OC(C)=O)C1OC(C)=O (centres undefined)
64 | 149 to 150 °C | CC(=O)c1cc(-c2ccccc2)c(=O)n2c1-c1sccc1CC2
65 | 196 °C | CCC1CC(=O)N(CCc2ccc(NC(=O)c3ccno3)cc2)N=C1c1ccc(OC)c(OC)c1 (centres undefined)
66 | 64 to 66 °C | CCOC(=O)CCC(=O)c1ccc(CCNS(=O)(=O)c2cccc(Cl)c2)cc1
67 | 209 to 211 °C | Nc1c(Cl)cc(C(=O)C=Cc2ccncc2)c2c1OCCO2
68 | 142 to 143 °C | CNC=Nc1cnc2ccccc2c1
69 | 116 °C | Cc1cc(-n2ccnc2)c2cccc(OCc3c(Cl)ccc(S(=O)(=O)N4CCC[C@H]4C(=O)NCc4ccccc4)c3Cl)c2n1
70 | 48 to 50 °C | CCC1(C)Oc2cccc(O)c2O1 (centres undefined)
71 | 79 to 83 °C | CC(C)(C)c1ccc(N2CCOCC2)c(NP(=O)(O)O)c1
72 | 76 to 78 °C | Cc1nc(-c2ccc(C(F)(F)F)cc2)ccc1CO
73 | 160 to 161 °C | O=C(O)CSc1ccc(/C=C/C(=O)NCc2cccnc2)cc1
74 | 188 to 191 °C | CCCCN1CCC(CNC(=O)c2cc(Cl)c(N)n3cc(C)nc23)CC1
75 | 213 to 216 °C | CCOC(=O)c1c[nH]c2cc(Cl)c(F)c(NCC=O)c2c1=O
76 | 90 to 91 °C | CCOC(=O)c1c(Cl)nc(-c2cccc([N+](=O)[O-])c2)c([N+](=O)[O-])c1C(=O)OCC
77 | 107 °C | CN(C)C(=O)c1c([N+](=O)[O-])cccc1S(=O)(=O)N(C)CCO
78 | 232 to 234 °C | Nc1ccc(S(=O)(=O)N2CCCC(c3ccc(Cl)c(Cl)c3)=N2)cc1
79 | 118 to 119 °C | COc1cccc2c1nc(Cl)n2C
80 | 145 to 147 °C | COC(=S)NCc1cn(-c2ccc(N3CCC(=O)CC3)c(F)c2)nn1
81 | 96 to 97 °C | COC(=O)C#Cc1cccc(C(=O)OC)c1

Row | melting point | SMILES
82 | 163 to 166 °C | CCn1c(=N)c(F)cn(S(=O)(=O)c2ccccc2)c1=O
83 | 192 to 194 °C | CN1CCN(C(=O)Nc2ccccc2C=Cc2cc(C(C)(C)C)c(O)c(C(C)(C)C)c2)CC1
84 | 62 to 64 °C | CNC(=O)[C@@H]1C[C@@H](OCc2ccccc2)CN1S(=O)(=O)c1ccc(Cl)c(CBr)c1Cl
85 | 129 to 132 °C | CCc1nn(C2CCCC2)c2cc(C(=O)Nc3ccc(C(=O)OC)cc3)ccc12
86 | 166 to 169 °C | N#CC(C#N)=CNc1cc(C(F)(F)F)ccc1Cl
87 | 147 to 149 °C | Nc1ccc(CCc2ccc(Cl)c(Cl)c2)cc1O
88 | 85 °C | CCOC(=Cc1ccc(-c2cccc(N(C)C(=O)NC3CCCCC3)c2)cc1)C(=O)O
89 | 239 °C | CCOCc1c2c(cc3c(=O)cc(C(=O)O)oc13)CCCC2
90 | 117 to 118 °C | O=C(CC1CCCC1)Nc1ccc2c(c1)C(=O)CCC2
91 | 192 to 194 °C | CCOC(=O)CCn1c(=O)[nH]c2ccccc2c1=O
92 | 286 to 290 °C | CCCCc1ncc(/C=C2\C(=O)NC(=O)N2c2ccccc2)n1Cc1ccc(C(=O)O)cc1
93 | 57 to 58 °C | CC(C)Oc1cc(CC(=O)O)c(F)cc1Cl
94 | 191 °C | CCCOc1nc(NC(C)=O)nc2ccc(Cl)nc12
95 | 113 °C | CCOC(=O)C(=CC=C(SC)C(=O)c1ccc(N2CCCCC2)cc1)N(C)C
96 | 190 to 191 °C | CCOC(=O)CNC(=O)c1cn2nc(Cl)ccc2n1
97 | 143 to 145 °C | Cc1ccc(Cl)cc1N1CCCN(C)C1=S
98 | 202 to 204 °C | O=C(O)Cc1c(C(=O)O)c2cc(Oc3ccc(Cl)cc3)ccc2n1-c1ccccc1
99 | 159 °C | O=C(NCCN1CCN(c2cc(C(F)(F)F)ccn2)CC1)c1ccc(F)cc1
100 | 108 to 110 °C | CCOC=CC(=O)Nc1cccc(C(=O)OC)c1
101 | 244 to 248 °C | COC(=O)c1ccc(O)cc1NC(=O)NS(=O)(=O)c1ccc(Cl)cc1
102 | 126 to 128 °C | Cc1c(Br)sc2cc(C(=O)CBr)ccc12
103 | 112 to 119 °C | CN(C)c1ccc(/C=C/C(=O)CC(=O)/C=C/c2ccc3cc[nH]c3c2)cc1
104 | 117 to 120 °C | CNC(=O)c1c(I)c(C#N)c(I)c(C(=O)OCC(O)CO)c1I (centres undefined)

Source: a melting point compilation (Tetko et al.; mined from patent text by program, amines drawn as free bases though some values may be those of a salt)
